Assay [1] has as its target T1, human HDAC1 (Homo sapiens, UniProt Q13547).
T1 construct: made in house; host or cells: HeLa (ATCC CCL-2), mammalian cells
Put plainly: Homo sapiens HDAC1 inhibition assay (Fluor-de-Lys, enzymatic). The class given is biochemical. Conditions: human HDAC enzymatic assay; read-out: hHDAC IC50. In outline:
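Fluorogenic deacetylation read-out: trypsin developer, supplemented with 2 μM final TSA as stop, releases fluorophore from deacetylated substrate.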

Assay [2] has as its system Plasmodium falciparum 3D7. Put plainly: P. falciparum growth inhibition assay (Pf-LDH). The class given is cell-based. The conditions noted are these: Plasmodium falciparum, Erythrocyte; P. falciparum 3D7 infected erythrocytes, 72 h incubation, PfLDH readout. In outline: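 Compounds were tested against 72 h cultures of the 3D7 strain (0.25% parasitemia, 2% hematocrit, 37° C, low-oxygen gas). Parasite growth was quantified as lactate dehydrogenase activity via NBT reduction, absorbance 650 nm, after freezing and thawing.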

T1 sequence (Q13547 whole entry): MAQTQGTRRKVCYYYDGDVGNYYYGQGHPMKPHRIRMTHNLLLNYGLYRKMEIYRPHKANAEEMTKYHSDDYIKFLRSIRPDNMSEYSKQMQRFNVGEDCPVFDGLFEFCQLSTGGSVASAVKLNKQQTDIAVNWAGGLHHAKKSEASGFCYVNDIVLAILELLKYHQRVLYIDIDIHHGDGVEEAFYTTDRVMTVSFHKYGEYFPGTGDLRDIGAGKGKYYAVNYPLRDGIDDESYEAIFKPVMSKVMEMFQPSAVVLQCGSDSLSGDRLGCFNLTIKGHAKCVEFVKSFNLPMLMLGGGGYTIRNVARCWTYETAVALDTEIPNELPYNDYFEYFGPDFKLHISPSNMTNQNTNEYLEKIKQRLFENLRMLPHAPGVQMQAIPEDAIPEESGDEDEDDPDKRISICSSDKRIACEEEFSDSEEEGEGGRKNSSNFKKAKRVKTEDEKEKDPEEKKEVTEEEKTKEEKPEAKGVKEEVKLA

A word on the IC50: it is the concentration that gives 50% inhibition. One may read the EC50 as the concentration needed to bring the measured effect to its halfway point. On to `CNC(=O)CCCCC[C@H](NC(=O)c1cccnc1)c1ncc(-c2ccc3ccccc3c2)[nH]1` [Entry 175, (S)-N-(7-(methylamino)-1-(5-(naphthalen-2-yl)-1H-imidazol-2-yl)-7-oxo-heptyl)nicotinamide], for which the IC50 in assay [1] is under 1000 nM. Besides, the EC50 in assay [2] was under 1000 nM.
Consider `CCN1CCCC(C(=O)N[C@@H](CCCCCC(=O)NC)c2ncc(-c3ccc4ccccc4c3)[nH]2)C1` (stereo partly drawn) [Entry 176, 1-ethyl-N-((S)-7-(methylamino)-1-(5-(naphthalen-2-yl)-1H-imidazol-2-yl)-7-oxo-heptyl)piperidine-3-carboxamide], for which the half-inhibitory concentration (IC50) in assay [1] is under 1000 nM. In assay [2], this molecule came in with a half-maximal effective concentration (EC50) of 1000 to 5000 nM.
On the same counts, the results for `CNC(=O)CCCCC[C@H](NC(=O)C12CCN(CC1)CC2)c1ncc(-c2cc3ccccc3nc2OC)[nH]1` [Entry 177, (S)-N-(1-(5-(2-methoxyquinolin-3-yl)-1H-imidazol-2-yl)-7-(methylamino)-7-oxo-heptyl)quinuclidine-4-carboxamide] are under 1000 nM and under 1000 nM.
In the same order, the values of `CNC(=O)CCCCC[C@H](NC(=O)CN(C)C)c1ncc(-c2cc3ccccc3nc2OC)[nH]1` [Entry 179, (S)-7-(2-(dimethyl-amino)acetamido)-7-(5-(2-methoxyquinolin-3-yl)-1H-imidazol-2-yl)-N-methylheptanamide] are 1000 to 5000 nM and over 5000 nM.
Regarding `CNC(=O)CCCCC[C@H](NC(=O)CCn1cncn1)c1ncc(-c2cc3ccccc3nc2OC)[nH]1` [Entry 180, (S)-7-(3-(1H-1,2,4-triazol-1-yl)propanamido)-7-(5-(2-methoxyquinolin-3-yl)-1H-imidazol-2-yl)-N-methyl-heptanamide], the half-inhibitory concentration (IC50) in assay [1] fell in the range of 1000 to 5000 nM. Further, the EC50 in assay [2] is 1000 to 5000 nM.
`CNC(=O)CCCCC[C@H](NC(=O)C12CCN(CC1)CC2)c1ncc(-c2ccc(Cl)c(C)c2)[nH]1` [Entry 181, (S)-N-(1-(5-(4-chloro-3-methylphenyl)-1H-imidazol-2-yl)-7-(methylamino)-7-oxo-heptyl)quinuclidine-4-carboxamide]: the IC50 in assay [1] is 1000 to 5000 nM. The molecule also registered a concentration giving a half-maximal response (EC50) in assay [2] of over 5000 nM.
Regarding `CNC(=O)CCCCC[C@H](NC(=O)OCc1ccccc1)c1ncc(-c2ccc(-c3ccn(C)n3)cc2)[nH]1` [Entry 182, (S)-benzyl(1-(5-(4-(1-methyl-1H-pyrazol-3-yl)phenyl)-1H-imidazol-2-yl)-7-(methylamino)-7-oxoheptyl)carbamate], the half-maximal inhibitory concentration (IC50) in assay [1] lay in the range of 1000 to 5000 nM. This molecule also displayed an EC50 in assay [2] of 1000 to 5000 nM.
On to `CNC(=O)CCCCC[C@H](NC(=O)c1ccc(N2CC(=O)NC2=O)cc1)c1ncc(-c2cc3ccccc3nc2OC)[nH]1` [Entry 183, (S)-4-(2,4-dioxoimidazolidin-1-yl)-N-(1-(5-(2-methoxyquinolin-3-yl)-1H-imidazol-2-yl)-7-(methylamino)-7-oxoheptyl)benzamide], for which, in assay [1], the IC50 was in the range of 1000 to 5000 nM. This molecule also came in with a concentration giving a half-maximal response (EC50) in assay [2] of 1000 to 5000 nM.
Regarding `CNC(=O)CCCCC[C@H](NC(=O)Cn1cnnc1)c1ncc(-c2cc3ccccc3nc2OC)[nH]1` [Entry 184, (S)-7-(2-(4H-1,2,4-triazol-4-yl)acetamido)-7-(5-(2-methoxyquinolin-3-yl)-1H-imidazol-2-yl)-N-methylheptanamide], the IC50 in assay [1] is 1000 to 5000 nM. The concentration giving a half-maximal response (EC50) in assay [2] lay in the range of 1000 to 5000 nM.
`CNC(=O)CCCCC[C@H](NC(=O)Cc1csc(-c2ccccc2)n1)c1ncc(-c2cc3ccccc3nc2OC)[nH]1` [Entry 185]: the IC50 in assay [1] is 1000 to 5000 nM. Moreover, the half-maximal effective concentration (EC50) in assay [2] lay within 1000 to 5000 nM.
Consider `CNC(=O)CCCCC[C@H](NC(=O)CCc1c(C)nc2ncnn2c1C)c1ncc(-c2cc3ccccc3nc2OC)[nH]1` [Entry 186, (S)-7-(3-(5,7-dimethyl-[1,2,4]triazolo[1,5-a]pyrimidin-6-yl)propanamido)-7-(5-(2-methoxyquinolin-3-yl)-1H-imidazol-2-yl)-N-methylheptanamide], for which the IC50 in assay [1] is under 1000 nM. In addition, the concentration giving a half-maximal response (EC50) in assay [2] was under 1000 nM.
For the molecule `CNC(=O)CCCCC[C@H](NC(=O)C1CCCO1)c1ncc(-c2cc3ccccc3nc2OC)[nH]1` (stereo partly drawn) [Entry 187, N-((S)-1-(5-(2-methoxyquinolin-3-yl)-1H-imidazol-2-yl)-7-(methylamino)-7-oxo-heptyl)tetra-hydrofuran-2-carboxamide], the IC50 in assay [1] is over 5000 nM. The same molecule came in with an EC50 in assay [2] of over 5000 nM.
In the case of `CNC(=O)CCCCC[C@H](NC(=O)c1cncs1)c1ncc(-c2cccc(-c3cc[nH]n3)c2)[nH]1` [Entry 188, (S)-N-(1-(5-(3-(1H-pyrazol-3-yl)phenyl)-1H-imidazol-2-yl)-7-(methylamino)-7-oxoheptyl)thiazole-5-carboxamide], the IC50 in assay [1] is over 5000 nM. In addition, the EC50 in assay [2] was 1000 to 5000 nM.
In the same order, the values of `CNC(=O)CCCCC[C@H](NC(=O)c1cc(C(C)C)on1)c1ncc(-c2ccc3ccncc3c2)[nH]1` [Entry 189, (S)-5-isopropyl-N-(1-(5-(isoquinolin-7-yl)-1H-imidazol-2-yl)-7-(methylamino)-7-oxoheptyl)isoxazole-3-carboxamide] are 1000 to 5000 nM and 1000 to 5000 nM.
In the same order, the values of `CNC(=O)CCCCC[C@H](NC(=O)c1cncs1)c1ncc(-c2ccc3cc(C(F)(F)F)ncc3c2)[nH]1` [Entry 190] are under 1000 nM and under 1000 nM.
With `CNC(=O)CCCCC[C@H](NC(=O)c1cncs1)c1ncc(-c2ccc3c(cnn3C)c2)[nH]1` [Entry 191, (S)-N-(1-(5-(1-methyl-1H-indazol-5-yl)-1H-imidazol-2-yl)-7-(methylamino)-7-oxoheptyl)thiazole-5-carboxamide], the IC50 in assay [1] fell in the range of 1000 to 5000 nM. In assay [2], this molecule gave an EC50 of under 1000 nM.
For the molecule `CNC(=O)CCCCC[C@H](NC(=O)c1cncs1)c1ncc(-c2ccc(-c3ccccc3)nc2OC)[nH]1` [Entry 192, (S)-N-(1-(5-(2-methoxy-6-phenylpyridin-3-yl)-1H-imidazol-2-yl)-7-(methylamino)-7-oxoheptyl)thiazole-5-carboxamide], the concentration for half-maximal inhibition (IC50) in assay [1] is over 5000 nM. Besides, the EC50 in assay [2] was 1000 to 5000 nM.
In the same order, the values of `CNC(=O)CCCCC[C@H](NC(=O)c1cncs1)c1ncc(-c2cc3ccccc3[nH]c2=O)[nH]1` [Entry 193, (S)-N-(7-(methylamino)-7-oxo-1-(5-(2-oxo-1,2-dihydroquinolin-3-yl)-1H-imidazol-2-yl)heptyl)thiazole-5-carboxamide] are under 1000 nM and under 1000 nM.
On the same counts, the results for `CNC(=O)CCCCC[C@H](NC(=O)c1cncs1)c1ncc(-c2ccc3cc(OC)ccc3c2)[nH]1` [Entry 194, (S)-N-(1-(5-(6-methoxynaphthalen-2-yl)-1H-imidazol-2-yl)-7-(methylamino)-7-oxoheptyl)thiazole-5-carboxamide] are under 1000 nM and under 1000 nM.
In the same order, the values of `CNC(=O)CCCCC[C@H](NC(=O)c1ccc(N2CC(=O)NC2=O)cc1)c1ncc(-c2ccc(-n3cccn3)cc2)[nH]1` [Entry 195, (S)-N-(1-(5-(4-(1H-pyrazol-1-yl)phenyl)-1H-imidazol-2-yl)-7-(methylamino)-7-oxoheptyl)-4-(2,4-dioxoimidazolidin-1-yl)benzamide] are over 5000 nM and 1000 to 5000 nM.
In the case of `CNC(=O)CCCCC[C@H](NC(=O)c1cncs1)c1ncc(-c2ccc(-c3cccnc3)cc2)[nH]1` [Entry 196, (S)-N-(7-(methylamino)-7-oxo-1-(5-(4-(pyridin-3-yl)phenyl)-1H-imidazol-2-yl)heptyl)thiazole-5-carboxamide], the half-maximal inhibitory concentration (IC50) in assay [1] lay within 1000 to 5000 nM. The EC50 in assay [2] fell in the range of 1000 to 5000 nM.
Regarding `CNC(=O)CCCCC[C@H](NC(=O)c1csc(-c2cccnc2)n1)c1ncc(-c2ccc3ccccc3c2)[nH]1` [Entry 197, (S)-N-(7-(methylamino)-1-(5-(naphthalen-2-yl)-1H-imidazol-2-yl)-7-oxoheptyl)-2-(pyridin-3-yl)thiazole-4-carboxamide], the IC50 in assay [1] was over 5000 nM. This molecule registered an EC50 in assay [2] of 1000 to 5000 nM.
Turning to `CNC(=O)CCCCC[C@H](NC(=O)C1CC(=O)Nc2ccccc21)c1ncc(-c2ccc3ccccc3c2)[nH]1` (stereo partly drawn) [Entry 198, N-((S)-7-(methylamino)-1-(5-(naphthalen-2-yl)-1H-imidazol-2-yl)-7-oxoheptyl)-2-oxo-1,2,3,4-tetrahydroquinoline-4-carboxamide], in assay [1], the IC50 was 1000 to 5000 nM. In assay [2], this molecule yielded an EC50 of under 1000 nM.
For `CNC(=O)CCCCC[C@H](NC(=O)CCc1cnn(C)c1)c1ncc(-c2ccc3ccccc3c2)[nH]1` [Entry 199, (S)-N-methyl-7-(3-(1-methyl-1H-pyrazol-4-yl)propanamido)-7-(5-(naphthalen-2-yl)-1H-imidazol-2-yl)heptanamide], the IC50 in assay [1] is under 1000 nM. Besides, in assay [2], the concentration for a half-maximal effect (EC50) was in the range of 1000 to 5000 nM.
As for `CNC(=O)CCCCC[C@H](NC(=O)Cc1c(C)[nH]c2ccc(OC)cc12)c1nnc(-c2ccc3ccccc3c2)o1` [Entry 200, (S)-7-(2-(5-methoxy-2-methyl-1H-indol-3-yl)acetamido)-N-methyl-7-(5-(naphthalen-2-yl)-1,3,4-oxadiazol-2-yl)heptanamide], in assay [1], the half-maximal inhibitory concentration (IC50) is under 1000 nM. Besides, in assay [2], the EC50 lay in the range of 1000 to 5000 nM.
On the same counts, the results for `CNC(=O)CCCCC[C@H](NC(=O)CC1=CSC2=NCCCN12)c1ncc(-c2cc3ccccc3nc2OC)[nH]1` [Entry 201, (S)-7-(2-(6,7-dihydro-5H-thiazolo[3,2-a]pyrimidin-3-yl)acetamido)-7-(5-(2-methoxyquinolin-3-yl)-1H-imidazol-2-yl)-N-methylheptanamide] are 1000 to 5000 nM and under 1000 nM.
Turning to `CNC(=O)CCCCC[C@H](NC(=O)CC1=CSC2=NCCCN12)c1ncc(-c2ccc3ccccc3c2)[nH]1` [Entry 202, (S)-7-(2-(6,7-dihydro-5H-thiazolo[3,2-a]pyrimidin-3-yl)acetamido)-N-methyl-7-(5-(naphthalen-2-yl)-1H-imidazol-2-yl)heptanamide], the 50% inhibitory concentration (IC50) in assay [1] lay in the range of 1000 to 5000 nM. In assay [2], the EC50 was under 1000 nM.
